Assay [1] addresses 5'-AMP-activated protein kinase catalytic subunit alpha-1 (Homo sapiens, UniProt Q13131).
The target in assay [2] is T1, Serine/threonine-protein kinase ULK1 (Homo sapiens, UniProt O75385).
T1 sequence (O75385 whole entry): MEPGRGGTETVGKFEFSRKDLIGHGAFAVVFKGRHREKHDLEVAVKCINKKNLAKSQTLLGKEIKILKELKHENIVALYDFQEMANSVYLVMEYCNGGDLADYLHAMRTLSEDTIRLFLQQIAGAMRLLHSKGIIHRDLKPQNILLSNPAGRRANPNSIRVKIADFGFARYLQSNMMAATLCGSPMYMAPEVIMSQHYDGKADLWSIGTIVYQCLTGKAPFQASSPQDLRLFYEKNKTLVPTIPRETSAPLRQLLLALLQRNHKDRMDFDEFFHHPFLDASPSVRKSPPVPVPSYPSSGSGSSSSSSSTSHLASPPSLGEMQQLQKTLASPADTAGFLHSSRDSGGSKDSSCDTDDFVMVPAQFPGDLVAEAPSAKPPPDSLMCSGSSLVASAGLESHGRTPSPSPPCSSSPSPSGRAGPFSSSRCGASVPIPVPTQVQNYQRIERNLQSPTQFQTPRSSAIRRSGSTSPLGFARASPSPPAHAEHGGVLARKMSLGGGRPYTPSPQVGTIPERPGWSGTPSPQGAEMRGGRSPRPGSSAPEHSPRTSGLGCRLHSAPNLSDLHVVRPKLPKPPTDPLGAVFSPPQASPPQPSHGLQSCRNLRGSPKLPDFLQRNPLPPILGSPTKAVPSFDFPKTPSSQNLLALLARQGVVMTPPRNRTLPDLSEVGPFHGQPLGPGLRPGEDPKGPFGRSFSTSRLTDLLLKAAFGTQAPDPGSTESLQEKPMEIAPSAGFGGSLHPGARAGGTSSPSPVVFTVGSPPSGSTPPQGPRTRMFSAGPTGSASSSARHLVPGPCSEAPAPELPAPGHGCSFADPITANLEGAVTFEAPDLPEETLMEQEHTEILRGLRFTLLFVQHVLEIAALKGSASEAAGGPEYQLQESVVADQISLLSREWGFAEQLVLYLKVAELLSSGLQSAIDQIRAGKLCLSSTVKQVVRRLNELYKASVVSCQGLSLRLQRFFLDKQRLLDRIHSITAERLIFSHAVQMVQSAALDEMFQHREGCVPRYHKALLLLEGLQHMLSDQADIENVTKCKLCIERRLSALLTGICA

Assay [3] addresses T2, Mitogen-activated protein kinase kinase kinase 3 (Homo sapiens, UniProt Q99759).
T2 sequence (Q99759 whole entry): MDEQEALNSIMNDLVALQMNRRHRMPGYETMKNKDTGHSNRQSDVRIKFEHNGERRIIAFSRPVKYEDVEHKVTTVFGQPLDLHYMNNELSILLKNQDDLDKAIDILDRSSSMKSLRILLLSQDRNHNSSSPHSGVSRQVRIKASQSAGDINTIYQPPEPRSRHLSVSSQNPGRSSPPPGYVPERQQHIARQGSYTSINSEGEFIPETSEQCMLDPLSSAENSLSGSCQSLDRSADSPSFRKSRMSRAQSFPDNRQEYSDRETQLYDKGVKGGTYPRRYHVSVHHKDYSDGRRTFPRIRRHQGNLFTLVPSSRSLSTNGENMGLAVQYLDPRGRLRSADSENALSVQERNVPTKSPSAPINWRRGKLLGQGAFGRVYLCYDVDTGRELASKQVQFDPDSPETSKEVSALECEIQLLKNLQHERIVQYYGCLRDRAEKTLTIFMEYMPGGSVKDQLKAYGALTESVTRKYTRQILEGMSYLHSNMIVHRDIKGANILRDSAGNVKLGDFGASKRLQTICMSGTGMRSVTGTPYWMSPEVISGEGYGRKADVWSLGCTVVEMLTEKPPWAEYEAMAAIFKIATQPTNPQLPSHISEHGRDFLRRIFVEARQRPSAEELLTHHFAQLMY

The target of assay [4] is Ribosomal protein S6 kinase alpha-4 (Homo sapiens, UniProt O75676).
Sequence of Ribosomal protein S6 kinase alpha-4 (O75676 whole entry): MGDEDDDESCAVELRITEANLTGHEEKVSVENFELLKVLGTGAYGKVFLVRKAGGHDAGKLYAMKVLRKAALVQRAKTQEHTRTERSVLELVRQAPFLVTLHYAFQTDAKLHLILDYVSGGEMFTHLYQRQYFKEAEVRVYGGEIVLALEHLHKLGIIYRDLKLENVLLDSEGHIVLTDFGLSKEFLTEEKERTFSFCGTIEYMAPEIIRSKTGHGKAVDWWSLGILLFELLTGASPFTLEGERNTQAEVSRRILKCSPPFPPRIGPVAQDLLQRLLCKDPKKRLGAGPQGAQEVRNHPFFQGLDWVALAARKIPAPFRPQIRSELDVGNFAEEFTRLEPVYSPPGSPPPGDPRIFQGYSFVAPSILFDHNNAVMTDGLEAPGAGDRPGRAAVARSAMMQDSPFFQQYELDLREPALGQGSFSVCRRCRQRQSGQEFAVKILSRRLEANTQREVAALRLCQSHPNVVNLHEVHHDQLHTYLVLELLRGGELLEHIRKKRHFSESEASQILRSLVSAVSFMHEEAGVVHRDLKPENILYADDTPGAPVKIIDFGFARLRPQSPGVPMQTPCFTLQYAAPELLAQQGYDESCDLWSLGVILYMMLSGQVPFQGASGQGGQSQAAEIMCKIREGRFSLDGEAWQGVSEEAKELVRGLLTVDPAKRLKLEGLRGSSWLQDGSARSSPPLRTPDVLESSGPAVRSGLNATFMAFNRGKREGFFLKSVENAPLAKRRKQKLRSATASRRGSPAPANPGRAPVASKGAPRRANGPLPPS
Assay [5] has as its target T3, Phenylalanine--tRNA ligase beta subunit (Homo sapiens, UniProt Q9NSD9).
T3 sequence (Q9NSD9 whole entry): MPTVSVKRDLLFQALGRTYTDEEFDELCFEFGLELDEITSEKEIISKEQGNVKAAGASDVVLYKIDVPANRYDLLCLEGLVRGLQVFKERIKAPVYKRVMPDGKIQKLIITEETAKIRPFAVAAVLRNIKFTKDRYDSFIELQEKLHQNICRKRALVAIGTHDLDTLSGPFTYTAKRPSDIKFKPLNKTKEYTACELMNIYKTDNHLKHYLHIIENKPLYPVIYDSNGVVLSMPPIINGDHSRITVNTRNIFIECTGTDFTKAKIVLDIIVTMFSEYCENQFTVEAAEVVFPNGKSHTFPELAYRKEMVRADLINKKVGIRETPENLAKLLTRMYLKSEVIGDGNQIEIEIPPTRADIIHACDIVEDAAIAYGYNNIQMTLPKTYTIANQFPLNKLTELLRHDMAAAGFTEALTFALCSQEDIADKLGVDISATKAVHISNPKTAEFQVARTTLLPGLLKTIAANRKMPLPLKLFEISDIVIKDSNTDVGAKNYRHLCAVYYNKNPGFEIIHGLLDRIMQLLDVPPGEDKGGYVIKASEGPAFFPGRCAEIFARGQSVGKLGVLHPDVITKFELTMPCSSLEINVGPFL

The target in assay [6] is T4, TGF-beta receptor type-1 (Homo sapiens, UniProt P36897).
T4 sequence (P36897 whole entry): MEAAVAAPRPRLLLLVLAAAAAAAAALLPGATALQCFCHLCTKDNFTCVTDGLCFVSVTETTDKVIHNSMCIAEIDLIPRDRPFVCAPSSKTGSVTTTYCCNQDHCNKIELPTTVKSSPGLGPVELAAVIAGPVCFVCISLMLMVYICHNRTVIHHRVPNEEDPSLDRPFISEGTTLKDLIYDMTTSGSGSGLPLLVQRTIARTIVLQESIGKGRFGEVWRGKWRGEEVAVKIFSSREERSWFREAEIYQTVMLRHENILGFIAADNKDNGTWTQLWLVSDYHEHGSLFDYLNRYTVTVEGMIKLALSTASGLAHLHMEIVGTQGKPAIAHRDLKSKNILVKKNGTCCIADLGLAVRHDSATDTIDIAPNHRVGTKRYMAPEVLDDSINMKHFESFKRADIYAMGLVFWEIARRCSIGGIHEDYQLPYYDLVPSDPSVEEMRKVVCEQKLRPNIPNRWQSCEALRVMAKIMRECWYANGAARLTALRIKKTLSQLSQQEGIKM

Assay [7] addresses cAMP-dependent protein kinase catalytic subunit alpha (Homo sapiens, UniProt P17612).
The target in assay [8] is Mitogen-activated protein kinase kinase kinase 4 (Homo sapiens, UniProt Q9Y6R4).
Sequence of Mitogen-activated protein kinase kinase kinase 4 (Q9Y6R4 whole entry): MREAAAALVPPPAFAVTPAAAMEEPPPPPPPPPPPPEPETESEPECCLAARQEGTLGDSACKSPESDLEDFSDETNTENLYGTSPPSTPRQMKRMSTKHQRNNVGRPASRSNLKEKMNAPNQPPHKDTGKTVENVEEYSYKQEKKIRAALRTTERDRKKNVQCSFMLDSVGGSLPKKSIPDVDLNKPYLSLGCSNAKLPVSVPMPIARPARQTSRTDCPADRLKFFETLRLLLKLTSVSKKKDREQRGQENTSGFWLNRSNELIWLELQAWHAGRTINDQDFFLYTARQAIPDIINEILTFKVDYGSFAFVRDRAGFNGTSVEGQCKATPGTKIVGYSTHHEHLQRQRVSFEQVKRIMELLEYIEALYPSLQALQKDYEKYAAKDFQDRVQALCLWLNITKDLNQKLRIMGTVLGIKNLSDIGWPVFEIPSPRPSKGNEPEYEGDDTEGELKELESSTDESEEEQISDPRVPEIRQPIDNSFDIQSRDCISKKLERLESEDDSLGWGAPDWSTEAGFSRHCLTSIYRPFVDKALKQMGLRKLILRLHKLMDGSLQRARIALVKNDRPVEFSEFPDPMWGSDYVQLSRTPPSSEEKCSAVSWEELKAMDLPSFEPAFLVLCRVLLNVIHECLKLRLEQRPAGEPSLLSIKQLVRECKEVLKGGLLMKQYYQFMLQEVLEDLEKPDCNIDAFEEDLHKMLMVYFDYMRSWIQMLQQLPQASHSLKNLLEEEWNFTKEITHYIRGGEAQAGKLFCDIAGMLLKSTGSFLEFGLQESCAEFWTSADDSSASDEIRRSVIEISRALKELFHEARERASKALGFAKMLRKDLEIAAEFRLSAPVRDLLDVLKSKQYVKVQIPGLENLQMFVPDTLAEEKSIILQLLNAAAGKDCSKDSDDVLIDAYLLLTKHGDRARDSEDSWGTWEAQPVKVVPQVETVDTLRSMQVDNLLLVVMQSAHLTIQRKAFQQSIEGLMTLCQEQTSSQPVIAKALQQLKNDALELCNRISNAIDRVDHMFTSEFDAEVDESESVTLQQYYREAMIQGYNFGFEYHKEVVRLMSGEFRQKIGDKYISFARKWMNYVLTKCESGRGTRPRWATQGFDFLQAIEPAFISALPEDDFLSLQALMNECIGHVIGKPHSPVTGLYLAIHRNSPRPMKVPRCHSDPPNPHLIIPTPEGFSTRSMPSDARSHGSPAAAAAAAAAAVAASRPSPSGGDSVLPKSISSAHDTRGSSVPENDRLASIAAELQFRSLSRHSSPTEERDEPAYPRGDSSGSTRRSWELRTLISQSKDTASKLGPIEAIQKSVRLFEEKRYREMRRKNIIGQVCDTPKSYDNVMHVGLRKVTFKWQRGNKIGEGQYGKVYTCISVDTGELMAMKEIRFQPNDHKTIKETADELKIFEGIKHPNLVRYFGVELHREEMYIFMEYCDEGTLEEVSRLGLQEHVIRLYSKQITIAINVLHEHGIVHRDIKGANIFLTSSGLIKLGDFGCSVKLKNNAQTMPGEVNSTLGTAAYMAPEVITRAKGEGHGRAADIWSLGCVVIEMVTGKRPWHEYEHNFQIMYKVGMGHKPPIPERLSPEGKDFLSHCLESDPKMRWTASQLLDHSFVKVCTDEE

Where a name gives a salt, the structure may show the parent alone. Calls of active or inactive are those of the source. For most assays here, no stated cut-off is given here; in the data, actives have a measured Kd and inactives only a lower limit.

Sequence of 5'-AMP-activated protein kinase catalytic subunit alpha-1 (Q13131 whole entry): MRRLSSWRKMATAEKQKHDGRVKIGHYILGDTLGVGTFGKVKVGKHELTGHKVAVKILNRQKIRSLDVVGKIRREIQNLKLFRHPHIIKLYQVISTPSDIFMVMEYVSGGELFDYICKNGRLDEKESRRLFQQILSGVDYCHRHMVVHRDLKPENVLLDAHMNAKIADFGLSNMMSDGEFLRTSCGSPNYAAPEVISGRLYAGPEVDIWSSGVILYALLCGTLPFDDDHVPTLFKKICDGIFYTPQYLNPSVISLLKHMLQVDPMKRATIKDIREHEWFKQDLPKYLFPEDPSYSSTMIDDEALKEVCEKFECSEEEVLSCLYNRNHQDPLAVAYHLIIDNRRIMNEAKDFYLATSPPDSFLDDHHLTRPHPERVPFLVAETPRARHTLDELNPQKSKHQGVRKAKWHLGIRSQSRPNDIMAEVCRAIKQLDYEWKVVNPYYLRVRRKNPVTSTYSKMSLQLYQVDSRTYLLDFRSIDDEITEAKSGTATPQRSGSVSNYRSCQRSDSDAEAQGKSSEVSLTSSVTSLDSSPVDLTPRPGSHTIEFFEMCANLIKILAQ

By Kd is commonly meant the equilibrium constant for the complex coming apart. As to `Cc1csc(-c2nnc(Nc3ccc(Oc4ncccc4-c4ccnc(N)n4)cc3)c3ccccc23)c1` [AMG-900], the Kd in assay [1] is > 30 µM (inactive); in assay [2], 0.19 µM (active); in assay [3] it was 2.75 µM (active); in assay [4] it was 2.07 µM (active); in assay [5] it was > 30 µM (inactive); in assay [6], > 30 µM (inactive). The Kd in assay [7] and in assay [8] was > 30 µM (inactive) each time.

Turning to `C=CC(=O)Nc1cc2c(Nc3ccc(F)c(Cl)c3)ncnc2cc1C#CC(C)(C)N1CCN(C)CC1` [AV-412 FREE BASE], the Kd in assay [1], in assay [2], in assay [3], in assay [4], in assay [5] and in assay [6] was > 30 µM (inactive) each time. Moreover, the Kd in assay [7] and in assay [8] was > 30 µM (inactive) in each case.

For `NC(=O)Nc1cc(-c2cccc(F)c2)sc1C(=O)N[C@H]1CCCNC1` [AZD-7762], the equilibrium dissociation constant (Kd) in assay [1] is 0.762 µM (active); in assay [2] it was 0.115 µM (active); in assay [3] it was > 30 µM (inactive); in assay [4] it was 0.879 µM (active); in assay [5], > 30 µM (inactive); in assay [6], > 30 µM (inactive). The Kd in assay [7] and in assay [8] was > 30 µM (inactive) throughout.

For the compound `Cc1cc(C(=O)NOCCO)c(Nc2ccc(I)cc2F)n(C)c1=O` [AZD-8330], the Kd in assay [1], in assay [2], in assay [3], in assay [4], in assay [5] and in assay [6] was > 30 µM (inactive) in each case. Further, the Kd in assay [7] and in assay [8] was > 30 µM (inactive) throughout.

Turning to `Cn1cnc2c(F)c(Nc3ccc(Br)cc3F)c(C(=O)NOCCO)cc21` [BINIMETINIB], the Kd in assay [1], in assay [2], in assay [3], in assay [4], in assay [5] and in assay [6] was > 30 µM (inactive) in each case. For the same compound, the Kd in assay [7] and in assay [8] was > 30 µM (inactive) each time.

With `CCn1c(C(=O)N(C2CC2)C2CC2)cc2c3c(ncn3C)c(Nc3cc(C)n(C)n3)nc21` [BMS-911543], the Kd in assay [1], in assay [2], in assay [3], in assay [4], in assay [5] and in assay [6] was > 30 µM (inactive) throughout. Besides, the Kd in assay [7] and in assay [8] was > 30 µM (inactive) in each case.

Turning to `COc1cc2ncnc(Oc3cccc(NC(=O)Nc4cc(C(C)(C)C(F)(F)F)on4)c3)c2cc1OC` [CEP-32496], the Kd in assay [1], in assay [2], in assay [3], in assay [4], in assay [5] and in assay [6] was > 30 µM (inactive) each time. Moreover, the Kd in assay [7] and in assay [8] was > 30 µM (inactive) throughout.

In the case of `Cc1cc(Nc2ncc(Cl)c(Nc3ccccc3S(=O)(=O)C(C)C)n2)c(OC(C)C)cc1C1CCNCC1` [CERITINIB], the Kd in assay [1], in assay [2], in assay [3], in assay [4], in assay [5] and in assay [6] was > 30 µM (inactive) each time. The Kd in assay [7] and in assay [8] was > 30 µM (inactive) in each case.

In the case of `COc1c(OCCCN2CCOCC2)ccc2c1N=C(NC(=O)c1cnc(N)nc1)N1CCN=C21` [COPANLISIB], the Kd in assay [1], in assay [2], in assay [3], in assay [4], in assay [5] and in assay [6] was > 30 µM (inactive) each time. Besides, the Kd in assay [7] and in assay [8] was > 30 µM (inactive) throughout.

For the compound `COCC(=O)NC/C=C/c1ccc2ncnc(Nc3ccc(Oc4ccc(C)nc4)c(C)c3)c2c1` [CP-724714], the Kd in assay [1], in assay [2], in assay [3], in assay [4], in assay [5] and in assay [6] was > 30 µM (inactive) each time. In addition, the Kd in assay [7] and in assay [8] was > 30 µM (inactive) in each case.

With `C#Cc1cccc(Nc2ncnc3cc(OC)c(OCCCCCCC(=O)NO)cc23)c1` [CUDC-101], the Kd in assay [1], in assay [2], in assay [3], in assay [4], in assay [5] and in assay [6] was > 30 µM (inactive) each time. For the same compound, the Kd in assay [7] and in assay [8] was > 30 µM (inactive) each time.

With `CCS(=O)(=O)N1CCN(c2ccc(Nc3ncc(C(N)=O)c(NC4CC4)n3)cc2)CC1` [Cerdulatinib Hydrochloride], the Kd in assay [1] was 10.8 µM (active); in assay [2] it was 2.82 µM; in assay [3] it was 1.09 µM (active); in assay [4], > 30 µM (inactive); in assay [5], > 30 µM (inactive); in assay [6], > 30 µM (inactive). Moreover, the Kd in assay [7] and in assay [8] was > 30 µM (inactive) throughout.

These data come from ChEMBL document CHEMBL3991601, “The target landscape of clinical kinase drugs” (Science, 2017).
